The values below come from US20040224995A1 (University of North Texas Health Science Center at Fort …, priority 2003, published 2004).

The test system of one data set is HT-22 cells. In words: HT-22 cell viability during glutamate exposure (calcein AM assay). Format: cell-based. The note with it: for neuroprotective effect of prostaglandins against glutamate toxicity: added 24 h before glutamate (15 mM), viability 15 h later. An excerpt:
Although not wanting to be bound by theory, the toxicity of glutamate in HT-22 (32) and C6 glioma (33) cell lines is mediated through oxidative stress. HT-22 cells lack ionotropic N-methyl-D-aspartate (“NMDA”) glutamate receptors, and the glutamate-induced cell death appears to occur via a slow onset oxidative stress (32,34,35). Glutamate blocks cystine uptake by inhibiting the glutamate/cystine antiporter in both HT-22 (32) and C6 glioma (33) cell lines. Since cysteine is required for glutathione (“GSH”) synthesis, the intracellular concentration of GSH decreases as a consequence. BSO depletes intracellular glutathione by inhibiting γ-glutamylcysteine synthetase, the rate-limiting enzyme in glutathione synthesis (33). […] Troglitazone further protected HT-22 (FIG. 14) and RGC-5 (FIG. 15) against BSO. The cell viability was taken at time points around about 14 to 24 hours post-insult time. In some of the experiments, the viability of cells was determined using 2.5 μM calcein AM assay in phosphate-buffered saline (PBS 1×). After 25 minutes of incubation, live cells were distinguished by the presence of intracellular esterase activity, which cleaves the calcein AM dye, producing a bright green fluorescence, as shown in FIG. 22. Viability was measured in Relative Fluorescent Units (“RFU”), and expressed as percentage of vehicle-treated control values.
15d-PGJ2 and two TZD's (e.g. troglitazone and ciglitazone) were tested for their ability to protect HT-22 cells against glutamate toxicity. […] HT-22 cells were treated with 15-dPGJ2 twenty-four hours prior to a glutamate insult (15 mM). […] The data of FIG. 24 was quantified using the calcein AM assay (see FIG. 22). Results are expressed in % survival of the control (non-glutamate-treated) cultures. DMSO received the vehicle only for 15d-PGJ2. Shown are mean±SEM for 6. The asterisk (“*”) indicates p<0.05 vs. respective control.
In order to conduct these experiments, the following compounds: PGA1; PGA2; PGJ2; Δ^12PGJ2; and 15d-PGJ2 were ordered from Biomol, Plymouth Meeting, Pa. HT-22, an immortalized mouse hippocampal cell line, C6 rat glioma, RGC-5 retinal ganglion cells were used. Cells were grown to confluence in DMEM media, and supplemented with 10% charcoal/dextran-treated fetal bovine serum (“FBS”), and […] gentamycin at 37° C. under 95% air, 5% CO2. HT-22, C6, and RGC-5 cells were plated at a density of 50,000, 35,000, and 10,000 cells/ml, respectively, in 96-well plates. Wells were pre-treated with cyclopentenone PGs at various times prior to being subjected to glutamate, hydrogen peroxide (H2O2), or BSO insults.
The WY-14643, Ciglitazone, Troglitazone, 9-cis retinoic acid, and 15d-PGJ2 compounds were purchased from Biomol (Plymouth Meeting, Pa.). L-165041 and L-783483 were kindly provided by Merck Laboratories. The cell lines used were HT-22, an immortalized mouse hippocampal cell line, and SK—N—SH, a human neuroblastoma cell line. The HT-22 cells were obtained from David Schubert (Salk Institute, San Diego, Calif.). The HT-22 line was originally selected from HT-4 cells based on glutamate sensitivity. HT-4 cells were immortalized from primary hippocampal neurons using a temperature-sensitive SV-40 T antigen (Morimoto and Koshland, 1990). SK—N—SH were obtained from ATCC (Manassas, Va.). HT-22 and SK—N—SH cells were grown to confluence in DMEM and RPMI-1640 media, respectively, and supplemented with 10% charcoal/dextran-treated fetal bovine serum (FBS), and 5 mg/ml gentamycin at 37° C. under 95% air, 5% CO2. HT-22 cells were plated at a density of 50,000 cells/ml (5,000 cells/well), and SK—N—SH were plated at a density of 120,000 to 150,000 cells/ml (12,000 to 15,000 cells/well) in 96-well plates. In most studies, wells were pre-treated with PPAR ligands over a wide dose range at various times prior to being subjected to either glutamate, hydrogen peroxide (H2O2), or serum deprivation insults. In some studies, the insults were applied prior to the addition of the PPAR ligand. […]

Another data set addresses PPAR-γ. The following applies: cited from earlier work.
The next data set has as its system PPARγ. The following applies: Berger et al., 1999; cited from earlier work.
A further data set concerns the target T1, PPAR-β (Homo sapiens, UniProt Q03181).
T1 sequence (Q03181 1-441): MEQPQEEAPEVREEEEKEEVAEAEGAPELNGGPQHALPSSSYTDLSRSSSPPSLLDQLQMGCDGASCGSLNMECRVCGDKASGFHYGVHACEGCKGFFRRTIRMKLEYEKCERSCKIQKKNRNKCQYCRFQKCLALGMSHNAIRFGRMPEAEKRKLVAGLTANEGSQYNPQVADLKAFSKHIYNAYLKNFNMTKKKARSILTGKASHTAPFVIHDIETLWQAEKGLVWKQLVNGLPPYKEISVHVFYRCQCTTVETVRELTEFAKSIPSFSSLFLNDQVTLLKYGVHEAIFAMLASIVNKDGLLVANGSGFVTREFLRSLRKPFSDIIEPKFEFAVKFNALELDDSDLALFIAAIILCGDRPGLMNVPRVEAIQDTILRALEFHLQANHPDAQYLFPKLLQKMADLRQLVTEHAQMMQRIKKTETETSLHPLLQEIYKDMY
The note with it: Berger et al., 1999; read-out: EC50 for activation of PPAR-β; cited from earlier work.

Data set [1] has as its system infarct after MCA occlusion. The following applies: intraventricular, 660 ng, 30 min before MCA occlusion; Satoh et al.; cited from earlier work.
The next data set relates to PPAR alpha. The following applies: Issemann and Green, 1990; read-out: EC50 for activation of PPAR alpha; cited from earlier work.

As usually defined, the Ki is a measure of affinity in units of concentration, obtained from inhibition or displacement. For orientation: EC50 means the concentration giving half of the maximal effect.

`CC1=C(/C=C/C(C)=C\C=C\C(C)=C\C(=O)O)C(C)(C)CCC1` [9-cis retinoic acid]: the “effect of adding 9-cis retinoic acid on neuroprotection by 15d-PGJ2” value with HT-22 cells (1 μM 9-cis retinoic acid with 15d-PGJ2, glutamate exposure) is reported as “did not alter the neuroprotective effects”.

`CC(C)(c1ccc(OCC2CO2)cc1)c1ccc(OCC2CO2)cc1` (stereo not shown) [BADGE, Bisphenol diglycidyl ether]: the “toxicity in the cell model” value in the data set on HT-22 cells (at concentrations close to Ki (100 μM)) was “showed some toxicity”. For the same compound, at PPAR-γ (read-out: Ki value as PPARγ antagonist), the inhibitory constant (Ki) was 100000 nM.

Consider `CCCc1c(OCCCOc2ccc(OCC(=O)O)cc2)ccc(C(C)=O)c1O` [L-165041], for which, in the data set with PPARγ, the “concentrations inducing weak activity of PPARγ” value was more than 51 µM. Moreover, the “effect on glutamate toxicity” value in the data set with HT-22 cells (1 nM to 50 μM, pretreated 24 h, glutamate 20 mM) was “failed to affect glutamate toxicity”. On PPAR-β, the EC50 is approximately 500 nM.

On to `COC(=O)CCCCC/C=C1/C(=O)C=C[C@H]1CCCCCCc1ccc(C)cc1` [NEPP-11], for which the “decrease of infarct volume” value in data set [1] is “about 50%”.

`CCCCC[C@H](O)/C=C/[C@H]1C=CC(=O)[C@@H]1CCCCCCC(=O)O` [PGA1]: the “neuroprotective effect of prostaglandins against glutamate toxicity” value (“neuroprotective effect of prostaglandins” below) with HT-22 cells is listed as “neuroprotective effects”.

In the case of `CCCCC[C@H](O)/C=C/[C@H]1C=CC(=O)[C@@H]1C/C=C\CCCC(=O)O` [PGA2], the “neuroprotective effect of prostaglandins” value with HT-22 cells is given as “neuroprotective effects”.

For `CCCCC[C@H](O)/C=C/C1=C(C/C=C\CCCC(=O)O)C(=O)CC1` [PGB2], the “neuroprotective effect of prostaglandins” value in the data set on HT-22 cells is “did not display any neuroprotective effects”.

In the case of `Cc1cccc(Nc2cc(Cl)nc(SCC(=O)O)n2)c1C` [WY 14,643], the “effect at the highest concentration on glutamate toxicity” value in the data set with HT-22 cells (highest concentration tested, glutamate 20 mM) was “enhanced glutamate toxicity”. Further, the “prevention of glutamate-induced cell death” value in the data set with HT-22 cells (pretreatment 24 h, 1 to 40 μM, glutamate 20 mM) is given as “failed to prevent glutamate-induced cell death”. Further, the EC50 with PPAR alpha is approximately 1500 nM.

Consider `CC1(COc2ccc(CC3SC(=O)NC3=O)cc2)CCCCC1` (stereo not shown) [ciglitazone, 5-[4-(1-methylcyclohexylmethoxy)benzyl]-thiazolidine-2,4-dione], for which, in the data set on HT-22 cells (concentrations up to 40 μM), the neuroprotective effects result was “did not have any neuroprotective effects”. Also, in the data set on HT-22 cells (pretreatment at various concentrations), the “protection against glutamate toxicity” value is recorded as “failed to protect”. The “affinity for PPAR-γ” value in the data set with PPAR-γ (similar to that of 15d-PGJ2) is “low micromolar (μM) range”.
